Patent US20240409557A1, “5,6-FUSED AND 6,6-FUSED BICYCLIC ALCOHOLS AND ETHERS AND COMPOSITIONS FOR USE AS 15-PROSTAGLANDIN DEHYDROGENASE MODULATORS” (AMGEN INC., priority 2023, published 2024)

Tests used:
[1] = target: T1, human recombinant 15-PGDH (Homo sapiens, UniProt P15428); experiment: Recombinant 15-PGDH enzymatic inhibition assay (PGDH-Lumi, NADH signal); type: biochemical; settings: recombinant 15-PGDH; 15 min pre-incubation, 60 min reaction with PGE2 and NAD+, NADH signal
T1 sequence (P15428 1-266): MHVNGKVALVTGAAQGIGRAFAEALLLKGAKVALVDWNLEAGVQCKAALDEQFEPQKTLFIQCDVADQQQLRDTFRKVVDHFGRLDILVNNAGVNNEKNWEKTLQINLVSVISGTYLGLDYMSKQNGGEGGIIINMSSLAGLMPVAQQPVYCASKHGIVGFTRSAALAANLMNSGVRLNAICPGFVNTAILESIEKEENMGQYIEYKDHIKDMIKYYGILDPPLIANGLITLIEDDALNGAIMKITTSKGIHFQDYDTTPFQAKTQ
Outline: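 Buffer 50 mM Tris pH 7.5 with 0.01% Tween-20 and […]; compound, 22 two-fold dilutions, pre-incubated with enzyme 15 min before substrate.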

15-PGDH in A549 cells = target: T2, 15-PGDH in A549 cells (Homo sapiens, UniProt P15428); experiment: A549 cellular 15-PGDH assay (PGE2 accumulation, HTRF); type: cell-based; settings: interleukin-stimulated, inhibitor 24 hrs, PGE2 by competitive HTRF, read-out: A549 Cell Assay IC50
T2 construct: endogenous in cells; host or cells: A549
T2 sequence (P15428 1-266): T1 sequence (P15428 1-266)
Excerpt: This assay was used for the quantification of IL-13 induced Native Prostaglandin E2 (PGE2) produced by A549 cells (epithelial cells from lung carcinoma) in cell culture supernatants. […] PGE2 was detected in a competitive HTRF assay by using anti PGE2 antibody labeled with Europium cryptate, and PGE2 labeled with […]. The PGE2 present in the sample competes with the binding between the two HTRF detection solutions (reagents) and thereby prevents FRET from occurring. The specific signal is inversely proportional to the PGE2 concentration. From this binding data, IC50 values were calculated.

SMILES | IC50 [1] [nM] | IC50 (15-PGDH in A549 cells) [nM]
Cn1cc2cc(-c3ccc4cc([C@H](O)CCC(F)(F)F)sc4c3)cnc2n1 (single isomer, unassigned) [Compound B60R] | 1.17 | 3.38
CC(C)n1cc2cc(-c3ccc4cc([C@H](O)C5CC(F)(F)C5)sc4n3)cnc2n1 (single isomer, unassigned) [Compound B64R] | 0.325 | 0.311
CC(C)n1cc2cc(-c3ccc4cc([C@@H](O)C5CC(F)(F)C5)sc4n3)cnc2n1 (single isomer, unassigned) [Compound B64S] | 0.597 | 0.483
CC(C)n1ncc2cc(-c3ccc4cc([C@H](O)C5CC(F)(F)C5)sc4n3)cnc21 (single isomer, unassigned) [Compound B65R] | 0.381 | 0.263
[2H][C@](O)(c1cc2ccc(-c3cnc4nn(C)cc4c3)nc2s1)C1CCOCC1 (single isomer, unassigned) [Compound B66R] | 0.396 | 0.303
Cn1cc2cc(-c3ccc4nc([C@H](O)C5CC(F)(F)C5)sc4n3)cnc2n1 (single isomer, unassigned) [Compound B72R] | 0.216 | 0.0479
Cn1cc2cc(-c3ccc4nc([C@@H](O)C5CC(F)(F)C5)sc4n3)cnc2n1 (single isomer, unassigned) [Compound B72S] | 9.58 | 5.27
Cn1cc2cc(-c3ccc4sc([C@H](O)C5CC(F)(F)C5)cc4n3)cnc2n1 (single isomer, unassigned) [Compound B73R] | 0.412 | 0.061
Cn1cc2cc(-c3ccc4sc([C@@H](O)C5CC(F)(F)C5)cc4n3)cnc2n1 (single isomer, unassigned) [Compound B73S] | 0.791 | 0.863
Cn1cc2cc(-c3ccc4sc([C@H](O)C5CC(F)(F)C5)nc4n3)cnc2n1 (single isomer, unassigned) [Compound B74R] | 4.76 | 0.494
Cn1cc2cc(-c3ccc4sc([C@@H](O)C5CC(F)(F)C5)nc4n3)cnc2n1 (single isomer, unassigned) [Compound B74S] | 24.1 | 4.48
Cn1cc2cc(-c3ncc4cc([C@H](O)C5CC(F)(F)C5)sc4n3)cnc2n1 (single isomer, unassigned) [Compound B75R] | 0.382 | 0.0162
Cn1cc2cc(-c3ncc4cc([C@@H](O)C5CC(F)(F)C5)sc4n3)cnc2n1 (single isomer, unassigned) [Compound B75S] | 25.4 | 12.5
Cn1cc2cc(-c3cnc4sc([C@H](O)C5CC(F)(F)C5)cc4c3)cnc2n1 (single isomer, unassigned) [Compound B77R] | 4.93 | 1.29
Cn1cc2cc(-c3cnc4sc([C@@H](O)C5CC(F)(F)C5)cc4c3)cnc2n1 (single isomer, unassigned) [Compound B77S] | 154 | 11.4
Cn1cc2cc(-c3cnc4cc([C@H](O)C5CC(F)(F)C5)sc4c3)cnc2n1 (single isomer, unassigned) [Compound B78R] | 17 | 2.49
Cn1cc2cc(-c3cnc4cc([C@@H](O)C5CC(F)(F)C5)sc4c3)cnc2n1 (single isomer, unassigned) [Compound B78S] | 896 | 57.1
[2H][C@](O)(c1cc2ccc(-c3cnc4nn(C)cc4c3)nc2s1)C1CC(F)(F)C1 (single isomer, unassigned) [Compound B79R] | 0.399 | 0.0094

SMILES | IC50 [1] [nM] | IC50 (15-PGDH in A549 cells) [nM]
[2H][C@@](O)(c1cc2ccc(-c3cnc4nn(C)cc4c3)nc2s1)C1CC(F)(F)C1 (single isomer, unassigned) [Compound B79S] | 0.706 | 0.37
Cn1cc2cc(-c3ccc4cc([C@H](CO)C5CC(F)(F)C5)sc4n3)cnc2n1 (single isomer, unassigned) [Compound B80S] | 1.16 | 0.339
Cc1c([C@H](O)C2CC(F)(F)C2)sc2nc(-c3cnc4nn(C)cc4c3)ccc12 (single isomer, unassigned) [Compound B83R] | 0.296 | 0.0103
Cc1c([C@@H](O)C2CC(F)(F)C2)sc2nc(-c3cnc4nn(C)cc4c3)ccc12 (single isomer, unassigned) [Compound B83S] | 5.13 | 1.11
Cn1cc2cc(-c3ccc4cc([C@H](O)[C@H]5C[C@@H](C(F)(F)F)C5)sc4n3)cnc2n1 (single isomer, unassigned) [Compound B84RC] | 0.47 | 0.492
Cn1cc2cc(-c3ccc4cc([C@H](O)[C@H]5C[C@H](C(F)(F)F)C5)sc4n3)cnc2n1 (single isomer, unassigned) [Compound B84RT] | 0.365 | 0.515
Cn1cc2cc(-c3ccc4cc([C@@H](O)[C@H]5C[C@@H](C(F)(F)F)C5)sc4n3)cnc2n1 (single isomer, unassigned) [Compound B84SC] | 1.53 | 1.45
Cn1cc2cc(-c3ccc4cc([C@@H](O)[C@H]5C[C@H](C(F)(F)F)C5)sc4n3)cnc2n1 (single isomer, unassigned) [Compound B84ST] | 1.21 | 0.642
Cn1cc2cc(-c3ccc4cc([C@H](O)[C@H]5CC5(F)F)sc4n3)cnc2n1 (single isomer, unassigned) [Compound B85RR] | 0.47 | 0.704
Cn1cc2cc(-c3ccc4cc([C@H](O)[C@@H]5CC5(F)F)sc4n3)cnc2n1 (single isomer, unassigned) [Compound B85RS] | 0.379 | 0.517
Cn1cc2cc(-c3ccc4cc([C@@H](O)[C@H]5CC5(F)F)sc4n3)cnc2n1 (single isomer, unassigned) [Compound B85SR] | 1.22 | 1.5
Cn1cc2cc(-c3ccc4cc([C@@H](O)[C@@H]5CC5(F)F)sc4n3)cnc2n1 (single isomer, unassigned) [Compound B85SS] | 3.32 | 2.83
Cn1cc2cc(-c3ccc4cc([C@H](O)C5(C)CC(F)(F)C5)sc4n3)cnc2n1 (single isomer, unassigned) [Compound B86R] | 0.504 | 0.499
Cn1cc2cc(-c3ccc4cc([C@@H](O)C5(C)CC(F)(F)C5)sc4n3)cnc2n1 (single isomer, unassigned) [Compound B86S] | 286 | 1.61
Cn1cc2cc(-c3ccc4cc([C@H](O)C56CC(C5)C6)sc4n3)cnc2n1 (single isomer, unassigned) [Compound B87R] | 0.494 | 0.667
Cn1cc2cc(-c3ccc4cc([C@@H](O)C56CC(C5)C6)sc4n3)cnc2n1 (single isomer, unassigned) [Compound B87S] | 28.8 | 0.572
CO[C@H]1C[C@@H]([C@@H](O)c2cc3ccc(-c4cnc5nn(C)cc5c4)nc3s2)C1 (single isomer, unassigned) [Compound B88RC] | 0.505 | 0.438
CO[C@H]1C[C@H]([C@@H](O)c2cc3ccc(-c4cnc5nn(C)cc5c4)nc3s2)C1 (single isomer, unassigned) [Compound B88RT] | 0.524 | 0.511
